According to article PMC7661129, “Evaluation of Binding of Rosmarinic Acid with Human Transferrin and Its Impact on the Protein Structure: Targeting Polyphenolic Acid-Induced Protection of Neurodegenerative Disorders” (Oxidative Medicine and Cellular Longevity, 2020):

Assays:
[1] = biological target: T1, Human transferrin (hTf) (Homo sapiens, UniProt P02787); assay: isothermal titration calorimetry (VP-ITC); type: binding; conditions: 25 °C; 20 mM sodium phosphate pH 7.4; four-site fit, first site; large fit error, Ka4 printed negative; unreliable
T1 construct: gene TF

[2] = biological target: T1, Human transferrin (hTf); assay: intrinsic fluorescence quenching, modified Stern-Volmer; type: binding; conditions: 301 K; 20 mM sodium phosphate pH 7.4; n = 1.25; double-log
Text: intrinsic fluorescence quenching, modified Stern-Volmer on Human transferrin (hTf)

T1 sequence (P02787 20-698): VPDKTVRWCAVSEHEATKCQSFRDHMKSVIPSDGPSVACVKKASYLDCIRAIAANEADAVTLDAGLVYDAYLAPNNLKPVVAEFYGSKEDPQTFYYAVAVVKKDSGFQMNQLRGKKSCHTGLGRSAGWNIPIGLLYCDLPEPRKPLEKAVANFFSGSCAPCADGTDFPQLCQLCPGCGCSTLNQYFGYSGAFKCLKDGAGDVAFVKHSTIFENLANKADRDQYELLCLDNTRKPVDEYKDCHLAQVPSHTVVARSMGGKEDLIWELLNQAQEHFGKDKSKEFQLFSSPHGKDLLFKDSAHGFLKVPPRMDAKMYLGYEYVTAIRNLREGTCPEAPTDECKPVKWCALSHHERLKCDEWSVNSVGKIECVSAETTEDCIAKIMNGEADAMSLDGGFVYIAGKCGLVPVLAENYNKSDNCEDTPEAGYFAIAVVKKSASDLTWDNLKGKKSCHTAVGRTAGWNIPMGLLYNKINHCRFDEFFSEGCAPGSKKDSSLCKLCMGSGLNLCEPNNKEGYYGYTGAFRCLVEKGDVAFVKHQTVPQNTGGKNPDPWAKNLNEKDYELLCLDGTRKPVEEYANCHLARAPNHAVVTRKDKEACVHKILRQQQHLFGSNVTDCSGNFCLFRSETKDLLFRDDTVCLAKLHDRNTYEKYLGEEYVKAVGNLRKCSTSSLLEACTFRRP

Compound: O=C(/C=C/c1ccc(O)c(O)c1)O[C@H](Cc1ccc(O)c(O)c1)C(=O)O [Rosmarinic acid]
- Ka1 [1]: 115000 ± 81000 M⁻¹
- K (10^7 M^-1) [2]: 0.107 × 10^7 M^-1
